Test results from US7160901B2, “Substituted indolinones, preparation thereof and their use as pharmaceutical compositions” (Boehringer Ingelheim Pharma GmbH & Co. KG, priority 2000, dated 2007).

Test system: not given
Assay: not given
Conditions: not given
A melting point of 216 °C was found for `CC(=O)N(CCN)c1ccc(N/C(=C2\C(=O)Nc3ccc(NS(=O)(=O)c4ccccc4)cc32)c2ccccc2)cc1` [Example 1, (Z)-3-{1-[4-(N-acetyl-N-(2-aminoethyl)-amino)-phenylamino]-1-phenyl-methylidene}-5-phenylsulphonylamino-2-indolinone] in this work.
A melting point of 266 °C was found for `CS(=O)(=O)Nc1ccc2c(c1)/C(=C(/Nc1ccc(CN3CCCCC3)cc1)c1ccccc1)C(=O)N2` [Example 98, (Z)-3-[1-(4-piperidinomethyl-phenylamino)-1-phenyl-methylidene]-5-methylsulphonylamino-2-indolinone] in this work.
A melting point of 248 to 249 °C was found for `CCOC(=O)Cc1ccc(N/C(=C2\C(=O)Nc3ccc(NS(=O)(=O)c4ccccc4)cc32)c2ccccc2)cc1` [Example 152, (Z)-3-[1-(4-ethoxycarbonylmethyl-phenylamino)-1-phenyl-methylidene]-5-phenylsulphonylamino-2-indolinone] in this work.
A melting point of 305 to 306 °C was found for `O=C(O)Cc1ccc(N/C(=C2\C(=O)Nc3ccc(NS(=O)(=O)c4ccccc4)cc32)c2ccccc2)cc1` [Example 153, (Z)-3-[1-(4-carboxymethyl-phenylamino)-1-phenyl-methylidene]-5-phenylsulphonylamino-2-indolinone] in this work.
A melting point of 219 to 220 °C was found for `O=C(Cc1ccc(N/C(=C2\C(=O)Nc3ccc(NS(=O)(=O)c4ccccc4)cc32)c2ccccc2)cc1)NCc1ccccc1` [Example 154, (Z)-3-{1-[4-(benzylaminocarbonylmethyl)-phenylamino]-1-phenyl-methylidene}-5-phenylsulphonylamino-2-indolinone] in this work.
A melting point of 216 to 217 °C was found for `CS(=O)(=O)N(CC(N)=O)c1ccc(N/C(=C2\C(=O)Nc3ccc(NS(=O)(=O)c4ccccc4)cc32)c2ccccc2)cc1` [Example 155, (Z)-3-{1-[4-(N-(aminocarbonylmethyl)-N-methylsulphonyl-amino)-phenylamino]-1-phenyl-methylidene}-5-phenylsulphonylamino-2-indolinone] in this work.
A melting point of 217 °C was found for `CC(=O)N(CCN(C)C)c1ccc(N/C(=C2\C(=O)Nc3ccc(N(C)S(=O)(=O)c4ccccc4)cc32)c2ccccc2)cc1` [Example 208, (Z)-3-{1-[4-(N-(2-dimethylamino-ethyl)-N-acetyl-amino)-phenylamino)-1-phenyl-methylidene}-5-(N-methyl-N-phenylsulphonyl-amino)-2-indolinone] in this work.
A melting point of 160 °C was found for `CN(C(=O)CN1CCCCC1)c1ccc(N/C(=C2\C(=O)Nc3ccc(N(C)S(=O)(=O)c4ccccc4)cc32)c2ccccc2)cc1` [Example 209, (Z)-3-{1-[4-(N-methyl-N-piperidinomethylcarbonyl-amino)-phenylamino)-1-phenyl-methylidene}-5-(N-methyl-N-phenylsulphonyl-amino)-2-indolinone] in this work.
A melting point of 226 °C was found for `CN(C)Cc1cccc(N/C(=C2\C(=O)Nc3ccc(N(C)S(=O)(=O)c4ccccc4)cc32)c2ccccc2)c1` [Example 210, (Z)-3-[1-(3-dimethylaminomethyl-phenylamino)-1-phenyl-methylidene]-5-(N-methyl-N-phenylsulphonyl-amino)-2-indolinone] in this work.

Test system: Leiomyosarcoma tumour cell line SK-UT-1B
Assay: Test 1: inhibition of the proliferation of cultivated human tumour cells (14C-thymidine incorporation), SK-UT-1B
Assay type: cell-based
Conditions: Homo sapiens, Skut1B; in vitro Test 1; SK-UT-1B cells; 48 hours' incubation, then 14C-thymidine for a further 24 hours; IC50 of inhibition of incorporated 14C-thymidine; read-out: Inhibition of SKUT-1B proliferation
Excerpt: Inhibition of the Proliferation of Cultivated Human Tumour Cells
Cells of the Leiomyosarcoma tumour cell line SK-UT-1B or non-small-cell lung tumour cell line NCI-H460 (obtained from the American Type Culture Collection (ATCC)) were cultivated in Minimum Essential Medium with non-essential amino acids (Gibco), supplemented with sodium pyruvate (1 mMol), glutamine (2 mMol) and 10% foetal calf serum (Gibco) or RPMI1640 Medium (Gibco) and 10% foetal calf serum (Gibco) and harvested in the logarithmic growth phase. Then the SK-UT-1B cells were placed in Cytostar® multi-well plates (Amersham) at a density of 4000 cells per well or 3000 cells per well for NCI-H460 cells and incubated overnight in an incubator. Various concentrations of the compounds (dissolved in DMSO; final concentration: 0.1%) were added to the cells. After 48 hours' incubation, ^14C-thymidine (Amersham) was added to each well and incubation was continued for a further 24 hours. The quantity of ^14C-thymidine which was incorporated into the tumour cells in the presence of the inhibitor and which represents the number of cells in the S phase was measured in a Wallace 1450 Microbeta Liquid Scintillation Counter. IC50 values for the inhibition of the proliferation (=inhibition of incorporated ^14C-thymidine) were calculated, correcting for the background radiation. All the measurements were done twice.
The following Table contains the results obtained with the in vitro Test 1 (++ denotes <0.01 μM, + denotes 0.01–1.0 μM): […]
An IC50 of 10 to 1000 nM was found for `CS(=O)(=O)Nc1ccc2c(c1)/C(=C(/Nc1ccc(CN3CCCCC3)cc1)c1ccccc1)C(=O)N2` [Example 98, (Z)-3-[1-(4-piperidinomethyl-phenylamino)-1-phenyl-methylidene]-5-methylsulphonylamino-2-indolinone] in this work.
An IC50 of less than 10 nM was found for `O=C1Nc2ccc(N(c3cccnc3)S(=O)(=O)c3ccccc3)cc2/C1=C(/Nc1ccc(CN2CCCCC2)cc1)c1ccccc1` [Example 134, (Z)-3-{1-[4-(piperidinomethyl)-phenylamino]-1-phenyl-methylidene}-5-(pyridin-3-ylphenylsulphonylamino)-2-indolinone] in this work.
An IC50 of 10 to 1000 nM was found for `O=C1Nc2ccc(NS(=O)(=O)C3CC3)cc2/C1=C(/Nc1ccc(CN2CCCC2)cc1)c1ccccc1` [Example 142, (Z)-3-{1-[4-(pyrrolidin-1-ylmethyl)-phenylamino]-1-phenyl-methylidene}-5-cyclopropylsulphonylamino-2-indolinone] in this work.
An IC50 of 10 to 1000 nM was found for `CCCS(=O)(=O)Nc1ccc2c(c1)/C(=C(/Nc1ccc(CN3CCCC3)cc1)c1ccccc1)C(=O)N2` [Example 143, (Z)-3-{1-[4-(pyrrolidin-1-ylmethyl)-phenylamino]-1-phenyl-methylidene}-5-propylsulphonylamino-2-indolinone] in this work.
An IC50 of 10 to 1000 nM was found for `CCS(=O)(=O)Nc1ccc2c(c1)/C(=C(/Nc1ccc(CN3CCCC3)cc1)c1ccccc1)C(=O)N2` [Example 144, (Z)-3-{1-[4-(pyrrolidin-1-ylmethyl)-phenylamino]-1-phenyl-methylidene}-5-ethylsulphonylamino-2-indolinone] in this work.
An IC50 of 10 to 1000 nM was found for `CS(=O)(=O)Nc1ccc2c(c1)/C(=C(/Nc1ccc(CN3CCCC3)cc1)c1ccccc1)C(=O)N2` [Example 145, (Z)-3-{1-[4-(pyrrolidin-1-ylmethyl)-phenylamino]-1-phenyl-methylidene}-5-methylsulphonylamino-2-indolinone] in this work.
An IC50 of 10 to 1000 nM was found for `O=C1Nc2ccc(NS(=O)(=O)c3ccccc3)cc2/C1=C(/Nc1ccc(C(=O)NCc2ccccc2)cc1)c1ccccc1` [Example 158, (Z)-3-{1-[4-(benzylaminocarbonyl)-phenylamino]-1-phenyl-methylidene}-5-phenylsulphonylamino-2-indolinone] in this work.
An IC50 of 10 to 1000 nM was found for `CC(=O)N(CC(=O)N(C)C)c1ccc(N/C(=C2\C(=O)Nc3ccc(NS(=O)(=O)c4ccccc4)cc32)c2ccccc2)cc1` [Example 164, (Z)-3-{1-[4-(N-dimethylaminocarbonylmethyl-N-acetyl-amino)-phenylamino]-1-phenyl-methylidene}-5-phenylsulphonylamino-2-indolinone] in this work.
An IC50 of 10 to 1000 nM was found for `CN(C)CCN(c1ccc(N/C(=C2\C(=O)Nc3ccc(N(C)S(=O)(=O)c4ccccc4)cc32)c2ccccc2)cc1)S(C)(=O)=O` [Example 207, (Z)-3-{1-[4-(N-(2-dimethylamino-ethyl)-N-methylsulphonyl-amino)-phenylamino)-1-phenyl-methylidene}-5-(N-methyl-N-phenylsulphonyl-amino)-2-indolinone] in this work.
